# Reference: patent US9617260B2, “Inhibitors of bruton's tyrosine kinase” (Hoffmann-La Roche Inc., priority 2013, dated 2017)
# Molecular target: Bruton's Tyrosine Kinase (BTK), inactivated state (Homo sapiens (Human), UniProt Q06187)
# Test: Bruton's Tyrosine Kinase (BTK) Inhibition TR-FRET (Time Resolved FRET) competition assay
# Format: binding
# Conditions: competition with Kinase Tracer 178 for BTK-Eu; plates incubated 18-24 h at 14° C.
# Method: Bruton's Tyrosine Kinase (BTK) Inhibition TR-FRET (Time Resolved FRET) Assay
# This BTK competition assay measures compound potency (IC50) for the inactivated state of Bruton's Tyrosine Kinase using FRET (Förster/Fluoresence Resonance Energy Transfer) technology. The BTK-Eu complex was incubated on ice one hour prior to use at a starting concentration of 50 nM BTK-Bioease™: 10 nM Eu-streptavidin (Perkin-Elmer Catalog #AD0062). The assay buffer consisted of 20 mM HEPES (pH 7.15), 0.1 mM DTT, 10 mM MgCl2, 0.5 mg/ml BSA with 3% Kinase Stabilizer (Fremont Biosolutions, Catalog #STB-K02). After 1 h, the reaction mixture from above was diluted 10 fold in assay buffer to make 5 nM BTK: 1 nM Eu-Streptavidin complex (donor fluorophore). 18 μl of a mixture of 0.11 nM BTK-Eu and 0.11 nM Kinase Tracer 178 (Invitrogen, Catalog #PV5593,) with BTK-Eu alone as no negative control, was then dispensed into 384-well flat bottom plates (Greiner, 784076). Compounds to be tested in assay were prepared as 10× concentrations and serial dilution in half-log increments was performed in DMSO so as to generate 10 point curves. To initiate the FRET reaction, compounds prepared as 10× stock in DMSO was added to the plates and the plates were incubated 18-24 h at 14° C.
# After the incubation the plates were read on a BMG Pherastar Fluorescent plate reader (or equivalent) and used to measure the emission energy from the europium donor fluorophore (620 nm emission) and the FRET (665 nm emission). The negative control well values were averaged to obtain the mean minimum. The positive “no inhibitor” control wells were averaged to obtain the mean maximum. Percent of maximal FRET was calculated using following equation: % max FRET=100×[(FSRcmpd−FSRmean min)/(FSRmean max−FSRmean min)]
# where FSR=FRET Signal ratio. % Max FRET curves were plotted in Activity Base (Excel) and the IC50 (%), hill slope, z′ and % CV were determined The mean IC50 and standard deviation will be derived from duplicate curves (singlet inhibition curves from two independent dilutions) using Microsoft Excel.
# Representative compound data for this assay are listed below in Table II.
# Sequence of Bruton's Tyrosine Kinase (BTK), inactivated state (Q06187 whole entry): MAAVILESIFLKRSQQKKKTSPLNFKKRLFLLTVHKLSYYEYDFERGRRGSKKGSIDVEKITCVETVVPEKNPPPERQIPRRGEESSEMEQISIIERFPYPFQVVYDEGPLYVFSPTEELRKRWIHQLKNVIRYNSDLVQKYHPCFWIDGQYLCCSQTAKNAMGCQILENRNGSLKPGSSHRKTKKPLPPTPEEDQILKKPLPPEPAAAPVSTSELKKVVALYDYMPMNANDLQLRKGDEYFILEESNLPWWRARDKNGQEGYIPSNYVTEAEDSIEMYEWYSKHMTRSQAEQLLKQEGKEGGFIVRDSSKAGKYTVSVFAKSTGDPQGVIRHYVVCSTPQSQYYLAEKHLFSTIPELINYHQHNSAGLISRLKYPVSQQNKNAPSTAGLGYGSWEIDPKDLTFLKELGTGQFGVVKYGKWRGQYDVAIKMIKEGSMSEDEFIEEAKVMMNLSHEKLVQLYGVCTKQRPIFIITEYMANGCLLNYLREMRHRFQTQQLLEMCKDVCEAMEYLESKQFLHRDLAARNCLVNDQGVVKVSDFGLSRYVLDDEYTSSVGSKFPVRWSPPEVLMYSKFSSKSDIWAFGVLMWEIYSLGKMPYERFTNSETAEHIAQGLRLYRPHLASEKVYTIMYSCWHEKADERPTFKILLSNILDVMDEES
row,IC50,Structure (SMILES)
1,0.291 µM,"CCC(=O)C(=O)N1CC=C(c2c[nH]c3ncc(NC(=O)OCc4ccccc4)cc23)CC1 [Compound 27, benzyl N-[3-[1-(2-oxobutanoyl)-3,6-dihydro-2H-pyridin-4-yl]-1H-pyrrolo[2,3-b]pyridin-5-yl]carbamate]"
2,0.0003 µM,"C=CC(=O)Nc1cccc(-c2c[nH]c3ncc(NC(=O)OCc4ccccc4)cc23)c1 [Compound 2, benzyl N-[3-[3-(prop-2-enoylamino)phenyl]-1H-pyrrolo[2,3-b]pyridin-5-yl]carbamate]"
3,0.331 µM,"CN(C)C/C=C/C(=O)Nc1ccccc1-c1c[nH]c2ncc(NC(=O)OCc3ccccc3)cc12 [Compound 23, benzyl N-[3-[2-[[(E)-4-(dimethylamino)but-2-enoyl]amino]phenyl]-1H-pyrrolo[2,3-b]pyridin-5-yl]carbamate]"
4,0.114 µM,"CCC(=O)C(=O)Nc1cccc(-c2c[nH]c3ncc(NC(=O)OCc4cccc(C#N)c4)cc23)c1 [Compound 19, (3-cyanophenyl)methyl N-[3-[3-(2-oxobutanoylamino)phenyl]-1H-pyrrolo[2,3-b]pyridin-5-yl]carbamate]"
